Assay results from patent US20230114728A1 (Venatorx Pharmaceuticals, Inc., priority 2019, published 2023).

target: T1, P. aeruginosa PBP3 (Pseudomonas aeruginosa, UniProt G3XD46); assay: Bocillin-FL fluorescence polarization competition binding assay, P. aeruginosa PBP3; conditions: fluorescence polarization competition binding assay using Bocillin-FL
T1 construct: made in house
Summary of the method: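 Binding of boronic acid inhibitors to purified Pseudomonas aeruginosa (PA01) PBP3 was measured by fluorescence polarization competition with Bocillin-FL, a fluorescent penicillin V. Reactions of 80 μl contained 0.75 μM PBP3 and 0.1 μM Bocillin-FL in 50 mM Hepes (pH 8.0), 300 mM NaCl and 5% (v/v) glycerol, in black 384-well plates. FP (Excitation 490 nm, Emission 520 nm) was read for up to 60 minutes. EC50 is the concentration that halves PBP-bound Bocillin-FL.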

T1 sequence (G3XD46 whole entry): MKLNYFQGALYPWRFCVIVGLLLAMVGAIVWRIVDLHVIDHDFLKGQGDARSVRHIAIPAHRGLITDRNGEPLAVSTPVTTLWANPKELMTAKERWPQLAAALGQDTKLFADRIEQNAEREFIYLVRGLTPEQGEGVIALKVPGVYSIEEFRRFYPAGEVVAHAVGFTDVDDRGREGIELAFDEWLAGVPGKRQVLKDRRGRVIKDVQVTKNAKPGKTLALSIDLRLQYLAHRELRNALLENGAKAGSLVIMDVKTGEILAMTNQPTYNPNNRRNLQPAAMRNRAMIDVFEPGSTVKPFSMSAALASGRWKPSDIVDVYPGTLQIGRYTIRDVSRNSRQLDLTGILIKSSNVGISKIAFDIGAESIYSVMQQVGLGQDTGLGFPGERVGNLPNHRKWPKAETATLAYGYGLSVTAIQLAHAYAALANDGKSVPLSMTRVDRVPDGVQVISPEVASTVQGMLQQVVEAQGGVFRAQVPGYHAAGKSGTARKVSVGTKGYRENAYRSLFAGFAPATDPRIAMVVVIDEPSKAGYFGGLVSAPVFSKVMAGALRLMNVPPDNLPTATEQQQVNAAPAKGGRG

Structure (SMILES)	P. aeruginosa PBP3 Potency
CCN1CCN(C(=O)NC(C(=O)N[C@H]2Cc3cccc(C(=O)O)c3OB2O)c2cc(Cl)c(O)cc2F)C(=O)C1=O (stereo partly drawn) [Example 101, (3R)-3-(2-(5-chloro-2-fluoro-4-hydroxyphenyl)-2-(4-ethyl-2,3-dioxopiperazine-1-carboxamido)acetamido)-2-hydroxy-3,4-dihydro-2H-benzo[e][1,2]oxaborinine-8-carboxylic acid]	D (D represents a potency <10 μM)
CCN1CCN(C(=O)NC(C(=O)N[C@H]2Cc3cccc(C(=O)O)c3OB2O)c2cc(Cl)c(O)c(Cl)c2)C(=O)C1=O (stereo partly drawn) [Example 171, (3R)-3-(2-(3,5-dichloro-4-hydroxyphenyl)-2-(4-ethyl-2,3-dioxopiperazine-1-carboxamido)acetamido)-2-hydroxy-3,4-dihydro-2H-benzo[e][1,2]oxaborinine-8-carboxylic acid]	D (D represents a potency <10 μM)
NC1(CN2CCN(C(=O)N[C@H](C(=O)N[C@H]3Cc4cccc(C(=O)O)c4OB3O)c3c(F)cc(O)cc3F)C(=O)C2=O)CC1 (single isomer, unassigned) [Example 122]	D (D represents a potency <10 μM)
O=C(O)c1c(F)ccc2c1OB(O)[C@@H](NC(=O)C(NC(=O)N1CCN(CCF)C(=O)C1=O)c1c(F)cc(O)cc1F)C2 (stereo partly drawn) [Example 129, (3R)-3-(2-(2,6-difluoro-4-hydroxyphenyl)-2-(4-(2-fluoroethyl)-2,3-dioxopiperazine-1-carboxamido)acetamido)-7-fluoro-2-hydroxy-3,4-dihydro-2H-benzo[e][1,2]oxaborinine-8-carboxylic acid]	D (D represents a potency <10 μM)
CCN1CCN(C(=O)NC(C(=O)N[C@H]2Cc3cccc(C(=O)O)c3OB2O)c2cc(F)c(O)c(Cl)c2)C(=O)C1=O (stereo partly drawn) [Example 164, (3R)-3-(2-(3-chloro-5-fluoro-4-hydroxyphenyl)-2-(4-ethyl-2,3-dioxopiperazine-1-carboxamido)acetamido)-2-hydroxy-3,4-dihydro-2H-benzo[e][1,2]oxaborinine-8-carboxylic acid]	D (D represents a potency <10 μM)
CCN1CCN(C(=O)NC(C(=O)N[C@H]2Cc3cccc(C(=O)O)c3OB2O)c2cc(F)c(O)cc2F)C(=O)C1=O (stereo partly drawn) [Example 104, (3R)-3-(2-(2,5-difluoro-4-hydroxyphenyl)-2-(4-ethyl-2,3-dioxopiperazine-1-carboxamido)acetamido)-2-hydroxy-3,4-dihydro-2H-benzo[e][1,2]oxaborinine-8-carboxylic acid]	D (D represents a potency <10 μM)
NCCN1CCN(C(=O)NC(C(=O)N[C@H]2Cc3cccc(C(=O)O)c3OB2O)c2cc(F)c(O)c(Cl)c2)C(=O)C1=O (stereo partly drawn) [Example 163, (3R)-3-(2-(4-(2-aminoethyl)-2,3-dioxopiperazine-1-carboxamido)-2-(3-chloro-5-fluoro-4-hydroxyphenyl)acetamido)-2-hydroxy-3,4-dihydro-2H-benzo[e][1,2]oxaborinine-8-carboxylic acid]	D (D represents a potency <10 μM)
NCCN1CCN(C(=O)NC(C(=O)N[C@H]2Cc3cccc(C(=O)O)c3OB2O)c2cc(F)c(O)cc2Cl)C(=O)C1=O (stereo partly drawn) [Example 109, (3R)-3-(2-(4-(2-aminoethyl)-2,3-dioxopiperazine-1-carboxamido)-2-(2-chloro-5-fluoro-4-hydroxyphenyl)acetamido)-2-hydroxy-3,4-dihydro-2H-benzo[e][1,2]oxaborinine-8-carboxylic acid]	D (D represents a potency <10 μM)
NCCN1CCN(C(=O)N[C@H](C(=O)N[C@H]2Cc3ccc(F)c(C(=O)O)c3OB2O)c2c(F)cc(O)cc2F)C(=O)C1=O (single isomer, unassigned) [Example 128]	C (C represents a potency between 10 and 30 μM)
CCN1CCN(C(=O)NC(C(=O)N[C@H]2Cc3cccc(C(=O)O)c3OB2O)c2cccc(CN)c2)C(=O)C1=O (stereo partly drawn) [Example 108, (3R)-3-(2-(3-(aminomethyl)phenyl)-2-(4-ethyl-2,3-dioxopiperazine-1-carboxamido)acetamido)-2-hydroxy-3,4-dihydro-2H-benzo[e][1,2]oxaborinine-8-carboxylic acid]	B (B represents a potency between 30 μM and 500 μM inclusive)
NCCN1CCN(C(=O)N[C@H](C(=O)N[C@H]2Cc3cccc(C(=O)O)c3OB2O)c2cc(F)c(O)c(F)c2F)C(=O)C1=O (single isomer, unassigned) [Example 167]	D (D represents a potency <10 μM)
CS(=O)(=O)N1CCN(C(=O)N[C@H](C(=O)N[C@H]2Cc3cccc(C(=O)O)c3OB2O)c2c(F)cc(O)cc2F)C1=O (single isomer, unassigned) [Example 136]	B (B represents a potency between 30 μM and 500 μM inclusive)
NCCN1CCN(C(=O)N[C@@H](C(=O)N[C@H]2Cc3ccc(F)c(C(=O)O)c3OB2O)c2c(F)cc(O)cc2F)C(=O)C1=O (single isomer, unassigned) [Example 127]	D (D represents a potency <10 μM)
CCN1CCN(C(=O)NC(C(=O)N[C@H]2Cc3cccc(C(=O)O)c3OB2O)c2cc(F)c(O)cc2Cl)C(=O)C1=O (stereo partly drawn) [Example 103, (3R)-3-(2-(2-chloro-5-fluoro-4-hydroxyphenyl)-2-(4-ethyl-2,3-dioxopiperazine-1-carboxamido)acetamido)-2-hydroxy-3,4-dihydro-2H-benzo[e][1,2]oxaborinine-8-carboxylic acid]	D (D represents a potency <10 μM)
NCCN1CCN(C(=O)N[C@@H](C(=O)N[C@H]2Cc3cccc(C(=O)O)c3OB2O)c2c(F)cc(O)cc2F)C(=O)C1=O (single isomer, unassigned) [Example 111]	D (D represents a potency <10 μM)
NCCCN1CCN(C(=O)N[C@H](C(=O)N[C@H]2Cc3cccc(C(=O)O)c3OB2O)c2cccc(NS(N)(=O)=O)c2)C(=O)C1=O [Example 118, (R)-3-((S)-2-(4-(3-aminopropyl)-2,3-dioxopiperazine-1-carboxamido)-2-(3-(sulfamoylamino)phenyl)acetamido)-2-hydroxy-3,4-dihydro-2H-benzo[e][1,2]oxaborinine-8-carboxylic acid]	D (D represents a potency <10 μM)
NCCN1CCN(C(=O)N[C@H](C(=O)N[C@H]2Cc3cccc(C(=O)O)c3OB2O)c2cc(Cl)c(O)c(Cl)c2)C(=O)C1=O (single isomer, unassigned) [Example 165]	D (D represents a potency <10 μM)
CCN1CCN(C(=O)NC(C(=O)N[C@H]2Cc3cccc(C(=O)O)c3OB2O)c2ccc(C(=O)O)cc2F)C(=O)C1=O (stereo partly drawn) [Example 145, (3R)-3-(2-(4-carboxy-2-fluorophenyl)-2-(4-ethyl-2,3-dioxopiperazine-1-carboxamido)acetamido)-2-hydroxy-3,4-dihydro-2H-benzo[e][1,2]oxaborinine-8-carboxylic acid]	D (D represents a potency <10 μM)
NCCN1CCN(C(=O)N[C@H](C(=O)N[C@H]2Cc3cccc(C(=O)O)c3OB2O)c2cccc(NS(N)(=O)=O)c2)C(=O)C1=O (single isomer, unassigned) [Example 115]	C (C represents a potency between 10 and 30 μM)
CCN1CCN(C(=O)N[C@H](C(=O)N[C@H]2Cc3cccc(C(=O)O)c3OB2O)c2ccc(C(=O)O)cc2O)C(=O)C1=O (single isomer, unassigned) [Example 143]	B (B represents a potency between 30 μM and 500 μM inclusive)
NC1(CN2CCN(C(=O)NC(C(=O)N[C@H]3Cc4cccc(C(=O)O)c4OB3O)c3cccc(NS(N)(=O)=O)c3)C(=O)C2=O)CC1 (stereo partly drawn) [Example 120, (3R)-3-(2-(4-((1-aminocyclopropyl)methyl)-2,3-dioxopiperazine-1-carboxamido)-2-(3-(sulfamoylamino)phenyl)acetamido)-2-hydroxy-3,4-dihydro-2H-benzo[e][1,2]oxaborinine-8-carboxylic acid]	D (D represents a potency <10 μM)
NCCN1CCN(C(=O)NC(C(=O)N[C@H]2Cc3cccc(C(=O)O)c3OB2O)c2ccc(C(=O)O)cc2O)C(=O)C1=O (stereo partly drawn) [Example 142, (3R)-3-(2-(4-(2-aminoethyl)-2,3-dioxopiperazine-1-carboxamido)-2-(4-carboxy-2-hydroxyphenyl)acetamido)-2-hydroxy-3,4-dihydro-2H-benzo[e][1,2]oxaborinine-8-carboxylic acid]	C (C represents a potency between 10 and 30 μM)
CCN1CCN(C(=O)NC(C(=O)N[C@H]2Cc3cccc(C(=O)O)c3OB2O)c2cc(F)c(C(=O)O)cc2F)C(=O)C1=O (stereo partly drawn) [Example 137, (3R)-3-(2-(4-carboxy-2,5-difluorophenyl)-2-(4-ethyl-2,3-dioxopiperazine-1-carboxamido)acetamido)-2-hydroxy-3,4-dihydro-2H-benzo[e][1,2]oxaborinine-8-carboxylic acid]	D (D represents a potency <10 μM)
NCCN1CCN(C(=O)N[C@@H](C(=O)N[C@H]2Cc3cccc(C(=O)O)c3OB2O)c2cccc(NS(N)(=O)=O)c2)C(=O)C1=O (single isomer, unassigned) [Example 114]	D (D represents a potency <10 μM)
CCN1CCN(C(=O)NC(C(=O)N[C@H]2Cc3cccc(C(=O)O)c3OB2O)c2cc(F)c(O)c(F)c2)C(=O)C1=O (stereo partly drawn) [Example 160, (3R)-3-(2-(3,5-difluoro-4-hydroxyphenyl)-2-(4-ethyl-2,3-dioxopiperazine-1-carboxamido)acetamido)-2-hydroxy-3,4-dihydro-2H-benzo[e][1,2]oxaborinine-8-carboxylic acid]	D (D represents a potency <10 μM)
